# Assay results reported in US6482805B2 (Parker Hughes Institute, priority 1998, dated 2002).
# Read-outs that look alike come from different tables or passages of the source.
# How the values were obtained:
# HIV-1 = experiment: Anti-HIV-1 activity, p24 antigen assay in infected PBMC (Example 1); format: cell-based; conditions: for anti-HIV activity, in words: compared with parent AZT derivatives
# Protocol: Subsequently, cells were cultured in 96-well microtiter plates (100 μl/well; 2×10^6/ml, triplicate wells) in the presence and absence of various concentrations (0.00 μM to 100 μM) of drugs for 7 days. Aliquots of culture supernatants were removed from the wells on the 7th day after infection for p24 antigen enzyme immunoassay as an indication of viral replication. Erice et al. Antimicrob. Agents and Chemother. […] Agents and Chemother. […] Percent inhibition of virus replication was calculated by comparing the p24 antigen values from the test drug-treated infected cells with p24 antigen values from untreated infected cells. […] Cell viability was quantified by a colorimetric […] assay. F. M. Uckun et al., Antimicrob. Agents and Chemother.
# human sperm = experiment: Sperm motility assay by CASA (Example 1); format: cell-based; conditions: for EC50: 3 hours incubation at 37° C., CASA, read-out: EC50, sperm motility; for spermicidal activity, in words: compared with related derivatives
# Protocol: All donor specimens were obtained after informed consent and in compliance with the guidelines of the Wayne Hughes Institute Institutional Review Board. Motile sperm (≧10×10^6/ml), were suspended in 0.5 ml of Biggers, Whitten, and Whittingam's medium (BWW) containing 25 mM HEPES (Irvine Scientific, Santa Ana, Calif.), and 0.3% bovine serum albumin (BSA; Fraction V, Sigma Chemical Co, St. Louis, Mo.) in the presence and absence of serial two-fold dilutions of test substance (300 μM to 4.6 μm) in 1% DMSO. The stock solutions of synthetic WHI compounds were prepared in DMSO (10 mg/ml) and diluted in DMSO to yield the desired concentrations. Corresponding volume of DMSO (1%) was added to control tubes. N-9 was diluted in BWW-0.3% BSA (pH 7.4) to yield the desired concentrations (4.6 to 300 μM). After 3 hours of incubation at 37° C., the percentage of motile sperm was evaluated by computer-assisted sperm analysis (CASA) as described [L. J. Burkman, Fertil. Steril. […] The percent motilities were compared with sham-treated control suspensions of motile sperm. […] Non-linear regression analyses were used to determine the EC50 values from the concentration effect curves using GraphPad PRISM software (San Diego, Calif.).
# For evaluating sperm motion kinematics using CASA, 4 μl each of sperm suspension was loaded into two 20-μm Microcell chambers (Conception Technologies) that was placed onto a counting chamber at 37° C. At least 5-8 fields per chamber were scanned for analysis using a Hamilton Thorne Integrated Visual Optical System (IVOS), version 10 instrument (Hamilton Thorne Research Inc., Danvers, Mass.). Each field was recorded for 30 seconds. […] The performance of the analyzer was periodically checked using the play-back function. The attributes of sperm kinematic parameters evaluated included numbers of motile (MOT) and progressively (PRG) motile sperm; curvilinear velocity (VCL; a measure of the total distance traveled by a given sperm during the acquisition divided by the time elapsed); average path velocity (VAP; the spatially averaged path that eliminates the wobble of the sperm head), straight line velocity (VSL; the straight-line distance from beginning to end of track divided by time taken), beat cross frequency (BCF, frequency of sperm head crossing sperm average path), the amplitude of lateral head displacement (ALH; the mean width of sperm head oscillation) and the derivatives, straightness ([…]); linearity (LIN=100×VSL/VCL; departure of sperm track from a straight line). Data from each individual cell track were recorded and analyzed. At least 200 motile sperm were analyzed for each aliquot sampled.
# sperm acrosome = experiment: Sperm acrosome and membrane integrity by FITC-lectin staining, confocal, SEM and TEM (Example 4); format: cell-based, human; conditions: 100 μM WHI compounds or 10 μM Cal A23187, 3 hours
# Protocol: The percentages of sperm with an intact acrosome were evaluated by fluorescence microscopy (Olympus BX-60) following fixation and ethanol permeabilization of the sperm pellets and subsequent staining with fluorescein (FITC)-conjugated Pisum sativum lectin (Sigma). In positive control sperm, the acrosome reaction was induced by incubating (3 hours at 37° C.) the sperm suspension with 10 μm calcium ionophore (Cal) A23187 (Sigma). […] The percentage of sperm positive for PI were determined by flow cytometry using a FACS Vantage flow cytometer (Becton Dickinson and Co., Mountain View, Calif.). The sperm in the swim-up fractions were identified by their characteristic forward and 90° angle light scattering properties [O. J. D'Cruz and G. G. Haas, Jr. Fertil. Steril. 58, 633 (1992)]. All analyses were done using the 488-nm excitation from an krypton/argon laser with a 635-nm band pass filter for PI emission. The percentage of sperm positive for PI staining were determined using cutoff signals for membrane-intact motile sperm.
# Ethanol permeabilized and air-dried sperm smears were stained sequentially with the three fluorescent markers, FITC-Pisum sativum, TOTO-3 iodide, and Nile red, each marking a different target (acrosome, nucleus, and plasma membrane of permeabilized sperm respectively). Samples were examined under a BioRad MRC-1024 Laser Scanning Confocal Microscope (BioRad Laboratories, Hercules, Calif.) equipped with a krypton/argon mixed gas laser (excitation lines 488, 568, and 647 nm) and mounted on a Nikon Eclipse E800 series upright microscope. The fluorescence emission of fluorescein, TOTO-3 iodide, and Nile red from the acrosomal region, nucleus, and the plasma membrane of sperm after ethanol permeabilization were simultaneously detected using the 598/40 nm, 522 DF32, and 680 DF32 emission/filter respectively. Confocal images were obtained using a Nikon 60× (NA 1.35) objective lens and Kalman collection filter. Digitized images were processed with the Adobe Photoshop software (Adobe Systems, Mountain View, Calif.). Final images were printed using a Fujix Pictography 3000 (Fuji Photo Film Co., Tokyo, Japan) color printer.
# High-resolution low-voltage scanning electron microscopy was utilized for topographical imaging of different membrane domains over the sperm head as described [M. H. Stoffel et al. Molecular. Reprod. Develop. 34, 175 (1993); S. L. Erlandsen et al. Scanning 11, 169 (1989)]. […] Washed sperm suspensions were placed on 0.1% poly-L-lysine-coated glass chips and allowed to adhere to the glass over a 60 minute incubation period on ice. The supernatants were decanted, and adherent cells were fixed in 1% paraformaldehyde and 1% glutaraldehyde in 0.14 M sodium cacodylate buffer for 3 hours. To preserve plasma membrane integrity, sperm were post-fixed in 1% osmium tetroxide (OSO4) containing 0.1% ruthenium red in 0.14 M cacodylate buffer for 1 hour at 4° C. All samples were dehydrated through an ascending ethanol series, critical point dried, and coated with approximately 2 nm of platinum using ion beam sputtering with argon (4 mA at 10 ke V; Ion Tech Ltd., Middlesex, England). All samples were examined in a Hitachi S-900 SEM at an accelerating voltage of 2 keV. Sperm were observed under low magnification (×2,000-5000) and representative sperm were photographed under intermediate magnification (×18,000-25,000). In each specimen evaluated, at least 200 sperm were scanned for the intactness of sperm acrosomal region.
# For transmission electron microscopy, treated sperm were fixed in 3% glutaraldehyde in 5% sucrose in 0.2 M cacodylate buffer for 3 hours at room temperature. The samples were post-fixed in 1% OSO4, 5% sucrose and 0.1% ruthenium red for 2 hours at 4° C. The samples were dehydrated in ascending ethanol series, and embedded in Spurr's epoxy. Thin sections (90 nm) were prepared on a Reichert-Jung Ultracut E and stained with uranyl acetate and lead citrate.
molecule,measurement,setting,value
"COC1N([C@H]2C[C@H](N)[C@@H](CO)O2)C(=O)NC(=O)C1(C)Br (stereo partly shown) [WHI-03, 5-Bromo-6-methoxy-5,6-dihydro-3′-amino-3 ′-deoxythymidine]","anti-HIV activity, in words",HIV-1,substantially reduced anti-HIV activity
same,melting point,,188 to 190 °C (dec.)
same,EC50,"human sperm; Homo sapiens, Sperm",12 µM
"Cc1cn([C@H]2C[C@H](N=[N+]=[N-])[C@@H](CO)O2)c(=O)[nH]c1=O [AZT, 3′-azido-3′-deoxythymidine, reference compound]",IC50,"HIV-1; Human immunodeficiency virus 1, PBMC, 168 h, read-out: IC50, HIV-1 replication (p24 antigen)",0.006 µM
same,effect on sperm motion parameters (CASA kinematics),human sperm,did not alter the sperm motion parameters
same,effect on sperm motility,human sperm; concentrations as high as 300 μm,did not affect sperm motility
"CNc1ccc2oc(C[C@H]3O[C@@]4(CC[C@H]3C)O[C@H]([C@H](C)C(=O)c3ccc[nH]3)[C@H](C)C[C@H]4C)nc2c1C(=O)O [Cal A23187, calcium ionophore (Cal) A23187, reference compound]",sperm head topography by scanning electron microscopy,sperm acrosome,"blebbing or vesiculation, fenestration, and loss of plasma and acrosomal membranes"
"5-bromo-6-methoxy-5,6-dihydro-AZT [WHI-01]","anti-HIV activity, in words",HIV-1,without significantly decreasing the anti-HIV activity
same,EC50,human sperm,104 µM
"5-Bromo-6-methoxy-5,6-dihydro-3 ′-deoxythymidine 5′-[Phenyl methoxyalaninyl phosphate] [WHI-12]","anti-HIV activity, in words",HIV-1,reduction in the anti-HIV activity
same,"spermicidal activity, in words",human sperm,improvement of the spermicidal activity
"5-Bromo-6-methoxy-5,6-dihydro-3′-deoxythymidine 5′-[p-Bromo phenyl methoxyalaninyl phosphate] [WHI-11]","anti-HIV activity, in words",HIV-1,reduction in the anti-HIV activity
same,"spermicidal activity, in words",human sperm,improvement of the spermicidal activity
